{"source": "patent US11891387B2", "about": "“Monoacylglycerol lipase modulators” (Janssen Pharmaceutica NV, priority 2020, dated 2024)", "note": "pIC50: −log10 of the molar value.", "data": [{"target": "human MGL from HeLa cells (Homo sapiens (Human), UniProt Q99685)", "sequence (Q99685 whole entry)": "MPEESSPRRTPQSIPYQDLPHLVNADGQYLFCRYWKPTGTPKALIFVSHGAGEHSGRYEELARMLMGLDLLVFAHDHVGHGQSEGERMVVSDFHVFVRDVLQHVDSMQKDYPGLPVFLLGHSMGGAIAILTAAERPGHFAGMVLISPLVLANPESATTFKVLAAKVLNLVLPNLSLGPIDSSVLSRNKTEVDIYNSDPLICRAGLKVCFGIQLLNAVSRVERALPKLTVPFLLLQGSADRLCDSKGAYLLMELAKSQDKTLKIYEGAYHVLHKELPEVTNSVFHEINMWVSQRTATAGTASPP", "experiment": "MGL in vitro activity assay: cleavage of [glycerol-1,3-3H]-oleyl glycerol, activated carbon filtration", "assay_type": "biochemical", "conditions": "300 nM [Glycerol-1,3-3H]-oleyl glycerol, endogenously expressed MGL from HeLa cells, one hour incubation", "experimental": "The assay used to measure the in vitro activity of MGL is adapted from the assay used for another serine hydrolase (FAAH) described in Wilson et al., 2003 (A high-throughput-compatible assay for determining the activity of fatty acid amide hydrolase. Wilson S J, Lovenberg T W, Barbier A J. Anal Biochem. 2003 Jul. 15; 318(2):270-5.). The assay consists of combining endogenously expressed MGL from HeLa cells with test compounds, adding [glycerol-1,3-^3H]-oleyl glycerol, incubating for one hour, and then measuring the amount of cleaved [1,3-^3H]-glycerol that passes through an activated carbon filter. The amount of cleaved, tritiated glycerol passing through the carbon filter is proportional to the activity of the MGL enzyme in a particular well/test condition.\nStandard conditions for this assay combine 300 nM [Glycerol-1,3-^3H]-oleyl glycerol with human MGL from HeLa cells and test compounds for one hour, after which the reaction is filtered through activated carbon and tritium is measured in the flow through. The test compound concentration in screening mode is 10 μM, while the highest compound concentration in IC50 assays is determined empirically. MGL is the predominant hydrolase in HeLa cells/cell homogenates.", "values": [{"compound": "C[C@H]1c2nn(C)c(-c3cc(C(F)(F)F)nn3C)c2CCN1C(=O)c1nccc2ccccc12", "note": "[Example 44, (S)-(2,7-Dimethyl-3-(1-methyl-3-(trifluoromethyl)-1H-pyrazol-5-yl)-2,4,5,7-tetrahydro-6H-pyrazolo[3,4-c]pyridin-6-yl)(isoquinolin-1-yl)methanone]", "pIC50": 7.72}, {"compound": "C[C@H]1c2nn(C)c(-c3cc(C(F)(F)F)nn3C)c2CCN1C(=O)c1cccc2c1ccn2C", "note": "[Example 45, (S)-(2,7-Dimethyl-3-(1-methyl-3-(trifluoromethyl)-1H-pyrazol-5-yl)-2,4,5,7-tetrahydro-6H-pyrazolo[3,4-c]pyridin-6-yl)(1-methyl-1H-indol-4-yl)methanone]", "pIC50": 8.96}, {"compound": "C[C@H]1c2nn(C)c(-c3cc(C(F)(F)F)nn3C)c2CCN1C(=O)c1ccnc2c1ccn2C", "note": "[Example 46, (S)-(2,7-Dimethyl-3-(1-methyl-3-(trifluoromethyl)-1H-pyrazol-5-yl)-2,4,5,7-tetrahydro-6H-pyrazolo[3,4-c]pyridin-6-yl)(1-methyl-1H-pyrrolo[2,3-b]pyridin-4-yl)methanone]", "pIC50": 8.24}, {"compound": "C[C@H]1c2nn(C)c(-c3cc(C(F)(F)F)nn3C)c2CCN1C(=O)c1c(F)cnc2c1ccn2C", "note": "[Example 47, (S)-(2,7-Dimethyl-3-(1-methyl-3-(trifluoromethyl)-1H-pyrazol-5-yl)-2,4,5,7-tetrahydro-6H-pyrazolo[3,4-c]pyridin-6-yl)(5-fluoro-1-methyl-1H-pyrrolo[2,3-b]pyridin-4-yl)methanone]", "pIC50": 9.17}, {"compound": "COc1cccc(C(=O)N2CCc3c(nn(C)c3-c3cc(C(F)(F)F)n(C)n3)[C@@H]2C)c1Cl", "note": "[Example 48, (S)-(2-Chloro-3-methoxyphenyl)(2,7-dimethyl-3-(1-methyl-5-(trifluoromethyl)-1H-pyrazol-3-yl)-2,4,5,7-tetrahydro-6H-pyrazolo[3,4-c]pyridin-6-yl)methanone]", "pIC50": 7.72}, {"compound": "C[C@H]1c2nn(C)c(-c3cc(C(F)(F)F)n(C)n3)c2CCN1C(=O)c1ccnc2c1ccn2C", "note": "[Example 49, (S)-(2,7-Dimethyl-3-(1-methyl-5-(trifluoromethyl)-1H-pyrazol-3-yl)-2,4,5,7-tetrahydro-6H-pyrazolo[3,4-c]pyridin-6-yl)(1-methyl-1H-pyrrolo[2,3-b]pyridin-4-yl)methanone]", "pIC50": 8.49}, {"compound": "Cc1cc(C(=O)N2CCc3c(nn(C)c3-c3cc(C(F)(F)F)n(C)n3)[C@@H]2C)cc(-n2nccn2)c1", "note": "[Example 50, (S)-(2,7-Dimethyl-3-(1-methyl-5-(trifluoromethyl)-1H-pyrazol-3-yl)-2,4,5,7-tetrahydro-6H-pyrazolo[3,4-c]pyridin-6-yl)(3-methyl-5-(2H-1,2,3-triazol-2-yl)phenyl)methanone]", "pIC50": 7.64}, {"compound": "COc1cccc(C(=O)N2CCc3c(nn(C)c3-c3cnn(C)c3C(F)(F)F)[C@@H]2C)c1Cl", "note": "[Example 51, (S)-(2-Chloro-3-methoxyphenyl)(2,7-dimethyl-3-(1-methyl-5-(trifluoromethyl)-1H-pyrazol-4-yl)-2,4,5,7-tetrahydro-6H-pyrazolo[3,4-c]pyridin-6-yl)methanone]", "pIC50": 6.05}, {"compound": "C[C@H]1c2nn(C)c(-c3cnn(C)c3C(F)(F)F)c2CCN1C(=O)c1ccnc2c1ccn2C", "note": "[Example 52, (S)-(2,7-Dimethyl-3-(1-methyl-5-(trifluoromethyl)-1H-pyrazol-4-yl)-2,4,5,7-tetrahydro-6H-pyrazolo[3,4-c]pyridin-6-yl)(1-methyl-1H-pyrrolo[2,3-b]pyridin-4-yl)methanone]", "pIC50": 6.38}, {"compound": "Cc1cc(C(=O)N2CCc3c(nn(C)c3-c3cnn(C)c3C(F)(F)F)[C@@H]2C)cc(-n2nccn2)c1", "note": "[Example 53, (S)-(2,7-Dimethyl-3-(1-methyl-5-(trifluoromethyl)-1H-pyrazol-4-yl)-2,4,5,7-tetrahydro-6H-pyrazolo[3,4-c]pyridin-6-yl)(3-methyl-5-(2H-1,2,3-triazol-2-yl)phenyl)methanone]", "pIC50": 6.09}, {"compound": "C[C@H]1c2nn(C)c(-c3cc(C(F)(F)F)nn3C)c2CCN1C(=O)c1cccc2c1OCCC2", "note": "[Example 54, (S)-Chroman-8-yl(2,7-dimethyl-3-(1-methyl-3-(trifluoromethyl)-1H-pyrazol-5-yl)-2,4,5,7-tetrahydro-6H-pyrazolo[3,4-c]pyridin-6-yl)methanone]", "pIC50": 7.80}, {"compound": "C[C@H]1c2nn(C)c(-c3cc(C(F)(F)F)nn3C)c2CCN1C(=O)c1ccc2c(c1)OCCC2", "note": "[Example 55, (S)-Chroman-7-yl(2,7-dimethyl-3-(1-methyl-3-(trifluoromethyl)-1H-pyrazol-5-yl)-2,4,5,7-tetrahydro-6H-pyrazolo[3,4-c]pyridin-6-yl)methanone]", "pIC50": 6.96}, {"compound": "C[C@H]1c2nn(C)c(-c3cc(C(F)(F)F)nn3C)c2CCN1C(=O)c1ccc2ncsc2c1", "note": "[Example 56, (S)-Benzo[d]thiazol-6-yl(2,7-dimethyl-3-(1-methyl-3-(trifluoromethyl)-1H-pyrazol-5-yl)-2,4,5,7-tetrahydro-6H-pyrazolo[3,4-c]pyridin-6-yl)methanone]", "pIC50": 7.59}, {"compound": "C[C@H]1c2nn(C)c(-c3cc(C(F)(F)F)nn3C)c2CCN1C(=O)c1cccc2ncsc12", "note": "[Example 57, (S)-Benzo[d]thiazol-7-yl(2,7-dimethyl-3-(1-methyl-3-(trifluoromethyl)-1H-pyrazol-5-yl)-2,4,5,7-tetrahydro-6H-pyrazolo[3,4-c]pyridin-6-yl)methanone]", "pIC50": 7.66}, {"compound": "Cc1nc2ccc(C(=O)N3CCc4c(nn(C)c4-c4cc(C(F)(F)F)nn4C)[C@@H]3C)cc2s1", "note": "[Example 58, (S)-(2,7-Dimethyl-3-(1-methyl-3-(trifluoromethyl)-1H-pyrazol-5-yl)-2,4,5,7-tetrahydro-6H-pyrazolo[3,4-c]pyridin-6-yl)(2-methylbenzo[d]thiazol-6-yl)methanone]", "pIC50": 7.26}, {"compound": "C[C@H]1c2nn(C)c(-c3cnn(C)c3C(F)(F)F)c2CCN1C(=O)c1ccc2ncsc2c1", "note": "[Example 59, (S)-Benzo[d]thiazol-6-yl(2,7-dimethyl-3-(1-methyl-5-(trifluoromethyl)-1H-pyrazol-4-yl)-2,4,5,7-tetrahydro-6H-pyrazolo[3,4-c]pyridin-6-yl)methanone]", "pIC50": 5.53}, {"compound": "COc1nccc(C(=O)N2CCc3c(nn(C)c3-c3cnn(C)c3C(F)(F)F)[C@@H]2C)c1C", "note": "[Example 60, (S)-(2,7-Dimethyl-3-(1-methyl-5-(trifluoromethyl)-1H-pyrazol-4-yl)-2,4,5,7-tetrahydro-6H-pyrazolo[3,4-c]pyridin-6-yl)(2-methoxy-3-methylpyridin-4-yl)methanone]", "pIC50": 5.37}, {"compound": "C[C@H]1c2nn(C)c(-c3cn(C)nc3C(F)(F)F)c2CCN1C(=O)c1ccc2c(c1)OCCC2", "note": "[Example 61, (S)-Chroman-7-yl(2,7-dimethyl-3-(1-methyl-3-(trifluoromethyl)-1H-pyrazol-4-yl)-2,4,5,7-tetrahydro-6H-pyrazolo[3,4-c]pyridin-6-yl)methanone]", "pIC50": 5.14}, {"compound": "C[C@H]1c2nn(C)c(-c3cnn(C)c3)c2CCN1C(=O)c1ccc2ncccc2c1", "note": "[Example 62, (S)-(2,7-Dimethyl-3-(1-methyl-1H-pyrazol-4-yl)-2,4,5,7-tetrahydro-6H-pyrazolo[3,4-c]pyridin-6-yl)(quinolin-6-yl)methanone]", "pIC50": 5.71}, {"compound": "C[C@H]1c2nn(C)c(-c3cc(C(F)(F)F)n(C)n3)c2CCN1C(=O)c1ccc2ncccc2c1", "note": "[Example 63, (S)-(2,7-Dimethyl-3-(1-methyl-5-(trifluoromethyl)-1H-pyrazol-3-yl)-2,4,5,7-tetrahydro-6H-pyrazolo[3,4-c]pyridin-6-yl)(quinolin-6-yl)methanone]", "pIC50": 7.20}, {"compound": "C[C@H]1c2nn(C)c(-c3cnn(C(F)(F)F)c3)c2CCN1C(=O)c1ccc2ncccc2c1", "note": "[Example 64, (S)-(2,7-Dimethyl-3-(1-(trifluoromethyl)-1H-pyrazol-4-yl)-2,4,5,7-tetrahydro-6H-pyrazolo[3,4-c]pyridin-6-yl)(quinolin-6-yl)methanone]", "pIC50": 7.10}, {"compound": "C[C@H]1c2nn(C)c(-c3cc(C(F)(F)F)nn3C)c2CCN1C(=O)c1ccc2ncccc2c1", "note": "[Example 65, (S)-(2,7-Dimethyl-3-(1-methyl-3-(trifluoromethyl)-1H-pyrazol-5-yl)-2,4,5,7-tetrahydro-6H-pyrazolo[3,4-c]pyridin-6-yl)(quinolin-6-yl)methanone]", "pIC50": 7.41}, {"compound": "CCn1ccc(-c2c3c(nn2C)[C@H](C)N(C(=O)c2ccc4ncccc4c2)CC3)n1", "note": "[Example 66, (S)-(3-(1-Ethyl-1H-pyrazol-3-yl)-2,7-dimethyl-2,4,5,7-tetrahydro-6H-pyrazolo[3,4-c]pyridin-6-yl)(quinolin-6-yl)methanone]", "pIC50": 5.40}, {"compound": "C[C@H]1c2nn(C)c(-c3ccn(C(F)F)n3)c2CCN1C(=O)c1ccc2ncccc2c1", "note": "[Example 67, (S)-(3-(1-(Difluoromethyl)-1H-pyrazol-3-yl)-2,7-dimethyl-2,4,5,7-tetrahydro-6H-pyrazolo[3,4-c]pyridin-6-yl)(quinolin-6-yl)methanone]", "pIC50": 5.87}, {"compound": "C[C@H]1c2nn(C)c(-c3ccnn3C3CC3)c2CCN1C(=O)c1ccc2ncccc2c1", "note": "[Example 68, (S)-(3-(1-Cyclopropyl-1H-pyrazol-5-yl)-2,7-dimethyl-2,4,5,7-tetrahydro-6H-pyrazolo[3,4-c]pyridin-6-yl)(quinolin-6-yl)methanone]", "pIC50": 5.38}, {"compound": "C[C@H]1c2nn(C)c(-c3cnn(C(F)F)c3)c2CCN1C(=O)c1ccc2ncccc2c1", "note": "[Example 69, (S)-(3-(1-(Difluoromethyl)-1H-pyrazol-4-yl)-2,7-dimethyl-2,4,5,7-tetrahydro-6H-pyrazolo[3,4-c]pyridin-6-yl)(quinolin-6-yl)methanone]", "pIC50": 7.05}]}]}
